Columns and labels:
Format in all cases: toxicity, cell-based
HEK-293T = test: Incucyte cell viability with HEK293T; details: human, 10 µM, compound concentration 10 uM
Fibroblast = test: Incucyte cell viability with human fibroblast; details: 10 µM, compound concentration 10 uM
U2OS = test: Incucyte cell viability with U2OS; details: human, 10 µM, compound concentration 10 uM
Also: unitless GR value; below 1 slowed growth and below 0 cell loss.

Row | Compound | Growth Rate (HEK-293T; 6 h, replicate number 1) | Growth Rate (HEK-293T; 12 h, replicate number 1) | Growth Rate (HEK-293T; 12 h, replicate number 2) | Growth Rate (HEK-293T; 18 h, replicate number 1) | Growth Rate (HEK-293T; 18 h, replicate number 2) | Growth Rate (HEK-293T; 24 h, replicate number 1) | Growth Rate (HEK-293T; 24 h, replicate number 2) | Growth Rate (Fibroblast; 0 h, replicate number 2) | Growth Rate (Fibroblast; 18 h, replicate number 2) | Growth Rate (Fibroblast; 24 h, replicate number 1) | Growth Rate (Fibroblast; 24 h, replicate number 2) | Growth Rate (U2OS; 0 h, replicate number 1) | Growth Rate (U2OS; 0 h, replicate number 2) | Growth Rate (U2OS; 6 h, replicate number 1) | Growth Rate (U2OS; 6 h, replicate number 2) | Growth Rate (U2OS; 18 h, replicate number 1) | Growth Rate (Fibroblast; 6 h, replicate number 1) | Growth Rate (Fibroblast; 6 h, replicate number 2) | Growth Rate (Fibroblast; 12 h, replicate number 2) | Growth Rate (U2OS; 18 h, replicate number 2) | further results
1 | CCc1ccc(N(CC(C)C)S(=O)(=O)c2ccc(OCC3CCOCC3)c(CO)c2)cc1 [GSK2981278] | 0.86 | 0.83 | 0.5 | 0.81 | 0.48 | 0.82 | 0.53 | 0.86 | 0.7 | 0.91 | 0.85 | 0.11 | 0.13 | 0.9 | 0.96 | 0.98 | – | – | – | – | Growth Rate (HEK-293T; 0 h, replicate number 1): -0.35
2 | COc1ccc(COc2ccc(Cc3cnc(N)nc3N)cc2OC)cc1 [GW632580X] | 0.7 | 0.83 | 0.92 | 0.93 | 0.87 | 0.91 | 0.92 | -0.61 | 0.48 | 0.78 | 0.57 | – | 0.63 | 0.52 | – | 0.63 | 0.69 | 0.45 | 0.22 | – | Growth Rate (Fibroblast; 12 h, replicate number 1): 0.73; Growth Rate (Fibroblast; 18 h, replicate number 1): 0.86; Growth Rate (U2OS; 12 h, replicate number 1): 0.7; Growth Rate (U2OS; 24 h, replicate number 1): 0.89
3 | O=C1N=C(NCc2cccs2)S/C1=C\c1ccc2ncccc2c1 | – | – | – | – | – | – | – | – | – | – | – | 0.58 | -0.23 | – | – | 0.78 | 0.04 | – | – | 0.67 | Growth Rate (HEK-293T; 0 h, replicate number 1): -0.36; Growth Rate (HEK-293T; 0 h, replicate number 2): -0.64; Growth Rate (Fibroblast; 0 h, replicate number 1): -0.1; Growth Rate (U2OS; 12 h, replicate number 1): -0.76; Growth Rate (U2OS; 12 h, replicate number 2): 0.57; Growth Rate (U2OS; 24 h, replicate number 1): 0.64; Growth Rate (U2OS; 24 h, replicate number 2): 0.78
4 | Cc1cc(Cn2c(N3CC4(CNC4)C3)nc3c(N4CCN(C)CC4)cc(Cl)cc32)cc(C)c1F | -0.99 | -0.88 | -0.92 | -0.67 | -0.74 | -0.51 | -0.56 | – | -0.98 | -0.88 | -0.93 | -1 | – | -0.98 | -0.99 | -0.92 | – | -1 | -1 | -0.84 | Growth Rate (HEK-293T; 6 h, replicate number 2): -1; Growth Rate (Fibroblast; 0 h, replicate number 1): -1; Growth Rate (Fibroblast; 12 h, replicate number 1): -0.99; Growth Rate (Fibroblast; 18 h, replicate number 1): -0.95; Growth Rate (U2OS; 12 h, replicate number 1): -0.97; Growth Rate (U2OS; 12 h, replicate number 2): -0.92; Growth Rate (U2OS; 24 h, replicate number 1): -0.79; Growth Rate (U2OS; 24 h, replicate number 2): -0.77
5 | CCc1nc(C2CCC2)n2nc(-c3ccccc3)[nH]c(=O)c12 | -0.09 | 0.44 | 0.76 | 0.64 | 0.76 | 0.75 | 0.91 | – | 0.5 | – | 0.86 | 0.68 | – | 0.84 | – | – | – | -0.72 | -0.29 | 0.95 | Growth Rate (HEK-293T; 0 h, replicate number 2): -0.05
6 | Clc1cccc(Nc2nccc(NCCCN3CCOCC3)n2)c1 | 0.27 | 0.34 | – | 0.37 | 0.82 | 0.38 | 0.69 | -0.07 | 0.57 | 0.48 | 0.53 | -0.75 | – | – | 0.73 | – | 0.51 | 0.14 | 0.39 | 0.82 | Growth Rate (HEK-293T; 0 h, replicate number 2): 0.13; Growth Rate (Fibroblast; 0 h, replicate number 1): -0.99; Growth Rate (Fibroblast; 12 h, replicate number 1): 0.59; Growth Rate (Fibroblast; 18 h, replicate number 1): 0.6; Growth Rate (U2OS; 12 h, replicate number 2): 0.73; Growth Rate (U2OS; 24 h, replicate number 2): 0.7
7 | O=C(Nc1cc(C(F)(F)F)ccc1N1CCCCC1)c1ccncc1 | – | – | – | – | – | – | – | -0.43 | 0.93 | – | 0.9 | 0.2 | – | – | 0.58 | – | – | 0.12 | 0.6 | – | Growth Rate (HEK-293T; 6 h, replicate number 2): 0.49
